Where a name gives a salt, the structure may show the parent alone.
Biological target: T1, human tryptase (Homo sapiens, UniProt P20231)
T1 construct: from tissue; host or cells: human lung tissue
Test: Inhibition of human tryptase: cleavage of chromogenic substrate tos-Gly-Pro-Arg-pNA, equilibrium conditions
Type: biochemical
Conditions: tryptase from human lung tissue; 50 μg of heparin/ml; in the presence of substrate tos-Gly-Pro-Arg-pNA, 405 nm; read-out: Kiapp (apparent dissociation constant)
Source text: The documented pathophysiological effects of mast cell tryptase are brought about directly by the enzymic activity of the protease. Accordingly, they are reduced or blocked by inhibitors which inhibit the enzymatic activity of the tryptase. The equilibrium dissociation constant Ki of the enzyme-inhibitor complex is a suitable measure of the affinity of a reversible inhibitor for the target protease. This Ki value can be determined by measuring the effect of the inhibitor on the tryptase-induced cleavage of a chromogenic peptide-p-nitroanilide substrate.
The dissociation constants of the tryptase-inhibitor complexes are determined under equilibrium conditions in accordance with the general recommendations of Bieth (Bieth JG, Pathophysiological interpretation of kinetic constants of protease inhibitors, Bull. Europ. Physiopath. Resp. 16:183-195, 1980) and the methods of Sommerhoff et al. (Sommerhoff CP et al., A. Kazal-type inhibitor of human mast cell tryptase: Isolation from the medical leech Hirudo medicinalis, characterization, and sequence analysis, Biol. Chem. Hoppe-Seyler 375: 685-694, 1994).
Human tryptase is prepared in a pure state from lung tissue; the specific activity of the isolated protease, determined by means of titration, is normally 85% of the theoretical value. Constant quantities of tryptase are incubated with increasing quantities of the inhibitors in the presence of 50 μg of heparin/ml for stabilizing the protease. After the equilibrium has been established between the reaction partners, the remaining enzyme activity is determined after adding the peptide-p-nitroanilide substrate tos-Gly-Pro-Arg-pNA, the cleavage of which is monitored at 405 nm over a period of 3 min. Alternatively, the residual enzymic activity can also be determined using fluorogenic substrates. The apparent dissociation constants Kiapp (i.e. in the presence of substrate) are subsequently ascertained by nonlinear regression by fitting the enzyme rates to the general equation for reversible inhibitors (Morrison JF, Kinetics of the reversible inhibition of enzyme-catalysed reactions by tight-binding inhibitors, Biochim. Biophys. Acta 185, 269-286, 1969):
V1/V0=131 {Et+lt+Kiapp−[(Et+lt+Kiapp)^2−4Etlt]^½}/2Et
In this equation, V1, and V0 are the rates in the presence and absence of the inhibitor, respectively, and Et and lt are the concentrations of the tryptase and of the inhibitor.
The apparent dissociation constants which were determined for the compounds according to the invention are given in Table A below, in which the numbers of the compounds correspond to the numbers of the compounds in the examples.

T1 sequence (P20231 31-275): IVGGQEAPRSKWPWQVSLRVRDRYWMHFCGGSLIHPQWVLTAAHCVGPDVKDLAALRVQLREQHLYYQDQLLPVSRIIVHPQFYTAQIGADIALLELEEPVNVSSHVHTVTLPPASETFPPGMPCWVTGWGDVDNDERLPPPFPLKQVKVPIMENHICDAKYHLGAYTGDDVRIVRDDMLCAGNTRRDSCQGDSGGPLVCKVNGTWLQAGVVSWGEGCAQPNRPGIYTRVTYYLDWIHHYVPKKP

Row | Structure (SMILES) | Ki [nM]
1 | NCc1cccc(C(=O)N2CCN(C(=O)c3cccc(C(=O)N4CCN(C(=O)c5cccc(CN)c5)CC4)n3)CC2)c1 [Compound 1, Pyridine-2,6-dicarbobis[4-(3-aminomethylbenzoyl)-1-piperazide]] | 3000
2 | NCc1cccc(C(=O)NC2CCN(C(=O)c3cccc(C(=O)N4CCC(NC(=O)c5cccc(CN)c5)CC4)n3)CC2)c1 [Compound 11, Pyridine-2,6-dicarbobis[4-(3-aminomethylbenzoylamino)-1-piperidide]] | 30
3 | NCC1CCC(C(=O)NC2CCN(C(=O)c3cccc(C(=O)N4CCC(NC(=O)C5CCC(CN)CC5)CC4)n3)CC2)CC1 (stereo not drawn) [Compound 15, Pyridine-2,6-dicarbobis[4-(4-aminomethylcyclohexyl-carbonylamino)-1-piperidide]] | 3000
4 | NCC1CCC(C(=O)N2CCN(C(=O)Nc3ccc(Oc4ccc(NC(=O)N5CCN(C(=O)C6CCC(CN)CC6)CC5)cc4)cc3)CC2)CC1 (stereo not drawn) [Compound 17, bis{4-[4-(4-Aminomethyl)cyclohexanoylpiperazin-1-yl-]-carbonyl}-4,4′-diaminodiphenyl Ether Dihydrochloride] | 22000
5 | NCc1cccc(C(=O)N2CCN(C(=O)Nc3ccc(Oc4ccc(NC(=O)N5CCN(C(=O)c6cccc(CN)c6)CC5)cc4)cc3)CC2)c1 [Compound 21, Bis{4-[4-(3-Aminomethyl)benzoylpiperazin-1-yl]-carbonyl}-4,4′-diaminodiphenyl Ether Dihydrochloride] | 100
6 | NCC1CCC(C(=O)NC2CCN(C(=O)NC3CCC(CC4CCC(NC(=O)N5CCC(NC(=O)C6CCC(CN)CC6)CC5)CC4)CC3)CC2)CC1 (stereo not drawn) [Compound 23, di{4-[4-(4-Aminomethyl)cyclohexanoylamino]piperidin-1-ylcarbamoyl}cyclohexylmethane Dihydrochloride] | 800
7 | CC(C)(c1ccc(OCC(=O)NCc2ccc(NC(=N)N)cc2)cc1)c1ccc(OCC(=O)NCc2ccc(NC(=N)N)cc2)cc1 [Compound 31, 2,2-bis-[4-(4-Guanidinylbenzylamino)carbonylmethoxy-phenyl]propane Dihydroacetate] | 200
8 | CC(C)(c1ccc(OCC(=O)NCC(=O)NCCCCN)cc1)c1ccc(OCC(=O)NCC(=O)NCCCCN)cc1 [Compound 34, 2,2-bis-[4-(10-Amino-3,6-diaza-2,5-dioxodecyloxy)-phenyl]propane Dihydrochloride] | 2000
9 | CC(C)(c1ccc(OC(=O)N2CCN(C(=O)NCc3ccc(CN)cc3)CC2)cc1)c1ccc(OC(=O)N2CCN(C(=O)NCc3ccc(CN)cc3)CC2)cc1 [Compound 36, 2,2-bis-(4-[4-(4-Aminomethylbenzylcarbamoyl)-1-piperazinylcarbonyloxy]phenyl)propane Dihydrochloride] | 28
